From patent publication US6274715A, “Tricyclic erythromycin derivatives” (priority 1997, dated 2001)
Values after ≈ are worked out from the molar mass of the structure shown.

What was measured:
Assay type in all cases: cell-based
[1] = tested on: STREPTOCOCCUS PYOGENES PIU 2548; assay: In vitro antibacterial activity, MIC, BHI agar dilution; settings: S. pyogenes PIU 2548, unit assumed
[2] = tested on: STREPTOCOCCUS PYOGENES 930; assay: as above; settings: S. pyogenes 930, unit assumed
[3] = tested on: PSEUDOMONAS AERUGINOSA DPHD-2862; assay: as above; settings: P. aeruginosa DPHD-2862, unit assumed
[4] = tested on: STAPHYLOCOCCUS AUREUS 1775; assay: as above; settings: S. aureus 1775, unit assumed
[5] = tested on: ENTEROBACTER AEROGENES ATCC 13048; assay: as above; settings: E. aerogenes ATCC 13048, unit assumed
CANDIDA ALBICANS CCH 442 = assay: as above; settings: C. albicans CCH 442, unit assumed
[6] = tested on: STAPHYLOCOCCUS AUREUS A-5278; assay: as above; settings: S. aureus A-5278, unit assumed
[7] = tested on: STREPTOCOCCUS BOVIS A-5169; assay: as above; settings: S. bovis A-5169, unit assumed
ESCHERICHIA COLI JUHL = settings: E. coli JUHL; BHI agar; unit assumed
[8] = tested on: STREPTOCOCCUS PYOGENES EES61; assay: In vitro antibacterial activity, MIC, BHI agar dilution; settings: S. pyogenes EES61, unit assumed
[9] = tested on: PSEUDOMONAS AERUGINOSA DPHD-5263; assay: as above; settings: P. aeruginosa DPHD-5263, unit assumed
[10] = tested on: PSEUDOMONAS AERUGINOSA K799/61; assay: as above; settings: P. aeruginosa K799/61, unit assumed
[11] = tested on: STAPHYLOCOCCUS AUREUS A5177; assay: as above; settings: S. aureus A5177, unit assumed
[12] = tested on: STAPHYLOCOCCUS AUREUS CMX 642A; assay: as above; settings: S. aureus CMX 642A, unit assumed
ESCHERICHIA COLI H560 = assay: as above; settings: E. coli H560, unit assumed
[13] = tested on: PSEUDOMONAS AERUGINOSA BMH10; assay: as above; settings: P. aeruginosa BMH10, unit assumed
STR[…] 508 = assay: as above; settings: S. agalactiae CMX 508, unit assumed
In short: (§1)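 MIC was read visually as the lowest drug concentration showing no growth, a slight haze or sparsely isolated colonies relative to a compound-free BHI plate. Plates held serial aqueous dilutions in BHI agar, were spot-inoculated with 1:100 (or 1:10) culture dilutions and incubated 20 to 24 hours at 35-37° C.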

M[…] ATCC 4698 = assay: as above; settings: M. luteus ATCC 4698, unit assumed
In short: as §1

EN[…] ATCC 8043 = assay: as above; settings: E. faecium ATCC 8043, unit assumed
In short: as §1

M[…] ATCC 9341 = assay: as above; settings: M. luteus ATCC 9341, unit assumed
In short: as §1

[14] = tested on: KLEBSIELLA PNEUMONIAE ATCC 8045; assay: as above; settings: K. pneumoniae ATCC 8045, unit assumed
[15] = tested on: STAPHYLOCOCCUS AUREUS CMX 553; assay: as above; settings: S. aureus CMX 553, unit assumed
[16] = tested on: PSEUDOMONAS AERUGINOSA 5007; assay: as above; settings: P. aeruginosa 5007, unit assumed
[17] = tested on: STAPHYLOCOCCUS EPIDERMIDIS 3519; settings: S. epidermidis 3519; BHI agar; unit assumed
ESCHERICHIA COLI DC-2 = assay: In vitro antibacterial activity, MIC, BHI agar dilution; settings: E. coli DC-2, unit assumed
PSEUDOMONAS CEPACIA 296I = assay: as above; settings: P. cepacia 296I, unit assumed
[18] = tested on: MYCOBACTERIUM SMEGMATIS ATCC 114; assay: as above; settings: M. smegmatis ATCC 114, unit assumed
[19] = tested on: STAPHYLOCOCCUS AUREUS NCTC10649M; assay: as above; settings: S. aureus NCTC10649M, unit assumed
[20] = tested on: STAPHYLOCOCCUS AUREUS ATCC 6538P; assay: as above; settings: S. aureus ATCC 6538P, 35-37° C., 20 to 24 hours, unit assumed
[21] = tested on: PROVIDENCIA STUARTII CMX 640; settings: P. stuartii CMX 640; BHI agar; unit assumed
ESCHERICHIA COLI SS = assay: In vitro antibacterial activity, MIC, BHI agar dilution; settings: E. coli SS, unit assumed
[22] = tested on: PSEUDOMONAS AERUGINOSA K799/WT; assay: as above; settings: P. aeruginosa K799/WT, unit assumed
ESCHERICHIA COLI KNK 437 = settings: E. coli KNK 437; BHI agar; unit assumed

| Compound | MIC [1] [µg/mL] | MIC [2] [µg/mL] | MIC [3] [µg/mL] | MIC [4] [µg/mL] | MIC [5] [µg/mL] | MIC (CANDIDA ALBICANS CCH 442) [µg/mL] | MIC [6] [µg/mL] | MIC [7] [µg/mL] | MIC (ESCHERICHIA COLI JUHL) [µg/mL] | MIC [8] [µg/mL] | MIC [9] [µg/mL] | MIC [10] [µg/mL] | MIC [11] [µg/mL] | MIC [12] [µg/mL] | MIC (ESCHERICHIA COLI H560) [µg/mL] | MIC [13] [µg/mL] | MIC (STR[…] 508) [µg/mL] | MIC (M[…] ATCC 4698) [µg/mL] | MIC (EN[…] ATCC 8043) [µg/mL] | MIC (M[…] ATCC 9341) [µg/mL] | other results |
| --- | --- | --- | --- | --- | --- | --- | --- | --- | --- | --- | --- | --- | --- | --- | --- | --- | --- | --- | --- | --- | --- |
| CC[C@H]1OC(=O)[C@H](C)C(=O)[C@H](C)[C@@H](O[C@@H]2O[C@H](C)C[C@H](N(C)C)[C@H]2O)[C@](C)(OC)C[C@@H](C)C2=N[C@H](CN3CCN(C)CC3)CN3C(=O)O[C@@]1(C)[C@H]3[C@H]2C [Example 93] | 3.1 (≈ 4.13 µM) | > 100 | > 100 | > 100 | > 100 | > 100 | > 100 | 0.02 (≈ 0.0267 µM) | > 100 | 0.02 (≈ 0.0267 µM) | > 100 | 3.1 (≈ 4.13 µM) | 0.78 (≈ 1.04 µM) | 0.78 (≈ 1.04 µM) | 100 (≈ 133 µM) | > 100 | 0.1 (≈ 0.133 µM) | 0.78 (≈ 1.04 µM) | 0.39 (≈ 0.52 µM) | 0.1 (≈ 0.133 µM) | MIC [14]: > 100 µg/mL; MIC [15]: 0.78 µg/mL (≈ 1.04 µM); MIC [16]: > 100 µg/mL; MIC [17]: 0.78 µg/mL (≈ 1.04 µM); MIC (ESCHERICHIA COLI DC-2): > 100 µg/mL; MIC (PSEUDOMONAS CEPACIA 296I): > 100 µg/mL; MIC [18]: 12.5 µg/mL (≈ 16.7 µM); MIC [19]: 0.78 µg/mL (≈ 1.04 µM); MIC [20]: 0.78 µg/mL (≈ 1.04 µM); MIC [21]: > 100 µg/mL; MIC (ESCHERICHIA COLI SS): 0.78 µg/mL (≈ 1.04 µM); MIC [22]: > 100 µg/mL; MIC (ESCHERICHIA COLI KNK 437): > 100 µg/mL |
| CC[C@H]1OC(=O)[C@H](C)C(=O)[C@H](C)[C@@H](O[C@@H]2O[C@H](C)C[C@H](N(C)C)[C@H]2O)[C@](C)(OC)C[C@@H](C)C2=N[C@H](CN3CCOCC3)CN3C(=O)O[C@@]1(C)[C@H]3[C@H]2C [Example 95] | 0.39 (≈ 0.529 µM) | > 100 | > 100 | > 100 | > 100 | > 100 | > 100 | 0.02 (≈ 0.0271 µM) | 100 (≈ 136 µM) | 0.05 (≈ 0.0678 µM) | > 100 | 1.56 (≈ 2.12 µM) | 0.39 (≈ 0.529 µM) | 0.39 (≈ 0.529 µM) | 50 (≈ 67.8 µM) | > 100 | 0.1 (≈ 0.136 µM) | 0.39 (≈ 0.529 µM) | 0.2 (≈ 0.271 µM) | 0.1 (≈ 0.136 µM) | MIC [14]: > 100 µg/mL; MIC [15]: 0.39 µg/mL (≈ 0.529 µM); MIC [16]: > 100 µg/mL; MIC [17]: 0.39 µg/mL (≈ 0.529 µM); MIC (ESCHERICHIA COLI DC-2): > 100 µg/mL; MIC (PSEUDOMONAS CEPACIA 296I): > 100 µg/mL; MIC [18]: 3.1 µg/mL (≈ 4.21 µM); MIC [19]: 0.39 µg/mL (≈ 0.529 µM); MIC [20]: 0.39 µg/mL (≈ 0.529 µM); MIC [21]: > 100 µg/mL; MIC (ESCHERICHIA COLI SS): 0.39 µg/mL (≈ 0.529 µM); MIC [22]: > 100 µg/mL; MIC (ESCHERICHIA COLI KNK 437): > 100 µg/mL |
| CCC1OC(=O)C(C)C(=O)C(C)C(OC2OC(C)CC(N(C)C)C2O)C(C)(OC)CC(C)C2=NC(CN3CCCCC3)CN3C(=O)OC1(C)C3C2C (stereo not drawn) [Example 96] | 0.39 (≈ 0.531 µM) | > 100 | > 100 | > 100 | 100 (≈ 136 µM) | > 100 | > 100 | 0.01 (≈ 0.0136 µM) | 25 (≈ 34 µM) | 0.02 (≈ 0.0272 µM) | > 100 | 0.78 (≈ 1.06 µM) | 0.2 (≈ 0.272 µM) | 0.39 (≈ 0.531 µM) | 12.5 (≈ 17 µM) | 100 (≈ 136 µM) | 0.05 (≈ 0.068 µM) | 0.39 (≈ 0.531 µM) | 0.1 (≈ 0.136 µM) | 0.02 (≈ 0.0272 µM) | MIC [14]: 100 µg/mL (≈ 136 µM); MIC [15]: 0.39 µg/mL (≈ 0.531 µM); MIC [16]: > 100 µg/mL; MIC [17]: 0.39 µg/mL (≈ 0.531 µM); MIC (ESCHERICHIA COLI DC-2): 25 µg/mL (≈ 34 µM); MIC (PSEUDOMONAS CEPACIA 296I): > 100 µg/mL; MIC [18]: 3.1 µg/mL (≈ 4.22 µM); MIC [19]: 0.39 µg/mL (≈ 0.531 µM); MIC [20]: 0.2 µg/mL (≈ 0.272 µM); MIC [21]: > 100 µg/mL; MIC (ESCHERICHIA COLI SS): 0.39 µg/mL (≈ 0.531 µM); MIC [22]: > 100 µg/mL; MIC (ESCHERICHIA COLI KNK 437): 50 µg/mL (≈ 68 µM) |
| CCC1OC(=O)C(C)C(=O)C(C)C(OC2OC(C)CC(N(C)C)C2O)C(C)(OC)CC(C)C2=NC(CN(C)C)CN3C(=O)OC1(C)C3C2C (stereo not drawn) [Example 97] | 0.2 (≈ 0.288 µM) | > 100 | > 100 | > 100 | 100 (≈ 144 µM) | > 100 | > 100 | 0.01 (≈ 0.0144 µM) | 50 (≈ 72 µM) | 0.02 (≈ 0.0288 µM) | > 100 | 0.78 (≈ 1.12 µM) | 0.2 (≈ 0.288 µM) | 0.2 (≈ 0.288 µM) | 25 (≈ 36 µM) | > 100 | 0.02 (≈ 0.0288 µM) | 0.78 (≈ 1.12 µM) | 0.1 (≈ 0.144 µM) | 0.05 (≈ 0.072 µM) | MIC [14]: 100 µg/mL (≈ 144 µM); MIC [15]: 0.39 µg/mL (≈ 0.561 µM); MIC [16]: > 100 µg/mL; MIC [17]: 0.39 µg/mL (≈ 0.561 µM); MIC (ESCHERICHIA COLI DC-2): 50 µg/mL (≈ 72 µM); MIC (PSEUDOMONAS CEPACIA 296I): > 100 µg/mL; MIC [18]: 12.5 µg/mL (≈ 18 µM); MIC [19]: 0.78 µg/mL (≈ 1.12 µM); MIC [20]: 0.2 µg/mL (≈ 0.288 µM); MIC [21]: > 100 µg/mL; MIC (ESCHERICHIA COLI SS): 0.39 µg/mL (≈ 0.561 µM); MIC [22]: > 100 µg/mL; MIC (ESCHERICHIA COLI KNK 437): 50 µg/mL (≈ 72 µM) |
